Results reported in PMC9305131, “Expanding the Repertoire of Low‐Molecular‐Weight Pentafluorosulfanyl‐Substituted Scaffolds” (Chemmedchem, 2022).
pIC50: −log10 of the molar value. Values joined by “and” are separate entries in the source; they are usually repeats but may differ in a detail not shown here. Equal values may be shown once. “Also recorded” adds a separate entry of the source. Read-outs that look alike come from different tables or passages of the source.

Assays:
VEGFR2 = VEGFR2 (Homo sapiens, UniProt P35968); assay: Biochemical kinase assay, VEGFR2; conditions: for inhibition at 10 µM: read-out: Percent inhibition at 10 μM; for IC50: n=1, 10‐dose IC50 mode with twofold serial dilutions, starting at 10 μM
Sequence of VEGFR2 (P35968 20-1356): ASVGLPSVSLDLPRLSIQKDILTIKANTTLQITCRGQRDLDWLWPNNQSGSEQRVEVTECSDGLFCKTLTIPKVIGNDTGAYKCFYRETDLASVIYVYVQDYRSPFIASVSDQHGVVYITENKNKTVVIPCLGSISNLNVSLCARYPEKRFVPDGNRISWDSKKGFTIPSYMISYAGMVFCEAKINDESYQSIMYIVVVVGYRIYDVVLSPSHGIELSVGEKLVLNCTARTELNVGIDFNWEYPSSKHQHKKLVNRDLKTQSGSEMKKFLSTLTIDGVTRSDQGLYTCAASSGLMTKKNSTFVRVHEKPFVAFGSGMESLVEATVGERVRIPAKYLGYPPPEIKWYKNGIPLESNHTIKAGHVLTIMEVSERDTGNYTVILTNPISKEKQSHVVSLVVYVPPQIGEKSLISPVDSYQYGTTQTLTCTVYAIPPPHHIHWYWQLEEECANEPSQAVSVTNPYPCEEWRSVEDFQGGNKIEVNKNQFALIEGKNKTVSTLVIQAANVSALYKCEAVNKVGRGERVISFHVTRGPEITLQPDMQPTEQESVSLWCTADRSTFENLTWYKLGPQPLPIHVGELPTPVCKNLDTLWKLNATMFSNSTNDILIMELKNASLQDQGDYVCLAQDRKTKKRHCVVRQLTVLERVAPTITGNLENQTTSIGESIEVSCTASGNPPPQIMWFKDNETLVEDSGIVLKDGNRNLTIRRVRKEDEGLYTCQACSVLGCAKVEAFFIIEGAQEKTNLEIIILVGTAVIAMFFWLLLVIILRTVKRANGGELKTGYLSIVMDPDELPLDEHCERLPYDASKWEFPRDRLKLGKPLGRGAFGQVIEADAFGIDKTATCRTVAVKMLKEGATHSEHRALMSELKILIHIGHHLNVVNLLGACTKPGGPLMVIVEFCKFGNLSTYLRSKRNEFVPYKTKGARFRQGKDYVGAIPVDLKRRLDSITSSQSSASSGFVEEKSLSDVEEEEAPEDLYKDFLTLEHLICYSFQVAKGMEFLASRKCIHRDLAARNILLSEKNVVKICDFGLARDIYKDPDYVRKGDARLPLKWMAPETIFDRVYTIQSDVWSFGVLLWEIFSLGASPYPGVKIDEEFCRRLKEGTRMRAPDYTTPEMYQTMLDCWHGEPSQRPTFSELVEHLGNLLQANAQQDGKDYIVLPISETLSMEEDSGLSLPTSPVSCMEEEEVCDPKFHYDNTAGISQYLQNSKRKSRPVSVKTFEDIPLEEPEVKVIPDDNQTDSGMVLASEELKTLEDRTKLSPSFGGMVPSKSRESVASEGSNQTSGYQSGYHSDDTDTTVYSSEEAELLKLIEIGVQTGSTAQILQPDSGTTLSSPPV

HEK293T/17 cells = conditions: for Cytostatic effect at concentrations above: 200–0.4 μM range; for Cytostatic effect (in words): HEK293T/17 cells
Pseudotyped SARS CoV2 = type: cell-based; conditions: HEK293T/17 with ACE2 and TMPRSS2, 48 hours, toxic concentrations excluded, normalised data
human HDHODH = human HDHODH (Homo sapiens, UniProt Q02127); assay: HDHODH inhibition, in vitro fluorescence‐based assays run by Reaction Biology; type: biochemical
Sequence of human HDHODH (Q02127 whole entry): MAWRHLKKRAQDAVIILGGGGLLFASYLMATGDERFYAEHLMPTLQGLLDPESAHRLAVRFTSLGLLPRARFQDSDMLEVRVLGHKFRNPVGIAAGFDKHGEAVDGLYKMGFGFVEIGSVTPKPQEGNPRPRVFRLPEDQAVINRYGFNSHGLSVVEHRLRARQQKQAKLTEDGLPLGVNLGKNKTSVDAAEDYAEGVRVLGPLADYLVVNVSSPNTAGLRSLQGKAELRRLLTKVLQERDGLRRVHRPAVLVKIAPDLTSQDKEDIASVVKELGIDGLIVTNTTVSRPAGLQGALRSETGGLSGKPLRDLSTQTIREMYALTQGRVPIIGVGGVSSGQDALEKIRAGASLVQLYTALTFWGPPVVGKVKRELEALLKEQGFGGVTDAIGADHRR

SARS‐CoV‐2 M^pro = biological target: T1, SARS‐CoV‐2 M^pro (Severe acute respiratory syndrome coronavirus 2, UniProt P0DTD1); assay: M^Pro inhibition (fluorescence‐based turnover assay / dose response); type: biochemical; conditions: enzyme inhibition; 17: fluorescence‐based turnover assay
T1 construct: M^pro releases the functional polypeptides from the polyproteins by extensive proteolytic processing

`O=C(c1cccc(S(F)(F)(F)(F)F)c1)N1CCCCC1` [3 a, [3‐(Pentafluoro‐λ^6‐sulfanyl)phenyl](piperidin‐1‐yl)methanone] gave a melting point of 88 to 90 °C.
`O=C(c1cccc(S(F)(F)(F)(F)F)c1)N1CCOCC1` [3 c, [3‐(Pentafluoro‐λ^6‐sulfanyl)phenyl](morpholino)methanone] gave a melting point of 63 to 64 °C.
`CS(=O)(=O)N1CCN(C(=O)c2cccc(S(F)(F)(F)(F)F)c2)CC1` [3 f, (3‐Pentafluoro‐λ^6‐sulfanyl phenyl)(4‐(methylsulfonyl)piperazin‐1‐yl)methanone] showed a melting point of 159 to 160 °C.
With `Cc1cc(C)c(/C=C2\C(=O)Nc3ccc(S(F)(F)(F)(F)F)cc32)[nH]1` [8 a, (3Z)‐3‐[(3,5‐Dimethyl‐1H‐pyrrol‐2‐yl)methylidene]‐5‐(pentafluoro‐λ^6‐sulfanyl)‐2,3‐dihydro‐1H‐indol‐2‐ one] the inhibition at 10 µM (VEGFR2) was 27%, the IC50 (VEGFR2) was “did not manifest sufficient inhibition to generate IC50 values” and the melting point was 203 to 205 °C.
Compound `CC(C)=C1C(=O)Nc2ccc(S(F)(F)(F)(F)F)cc21` [8 b, 5‐(Pentafluoro‐λ^6‐sulfanyl)‐3‐(propan‐2‐ylidene)‐2,3‐dihydro‐1H‐indol‐2‐one] has a melting point of 191 to 194 °C.
With `Cc1cc(C)c(/C=C2\C(=O)Nc3cc(S(F)(F)(F)(F)F)ccc32)[nH]1` [9 a, (3Z)‐3‐[(3,5‐Dimethyl‐1H‐pyrrol‐2‐yl)methylidene]‐6‐(pentafluoro‐λ^6‐sulfanyl)‐2,3‐dihydro‐1H‐indol‐2‐one] the inhibition at 10 µM (VEGFR2) was 23%, the IC50 (VEGFR2) was “did not manifest sufficient inhibition to generate IC50 values” and the melting point was 199 to 201 °C.
For `O=C1Nc2ccc(S(F)(F)(F)(F)F)cc2C12CCOCC2` [11 a, 5‐(Pentafluoro‐λ^6‐sulfanyl)‐1,2‐dihydrospiro[indole‐3,4′‐ oxan]‐2‐one], the melting point was 247 to 249 °C.
In the case of `CN1C(=O)C2(CCOCC2)c2cc(S(F)(F)(F)(F)F)ccc21` [11 b, 1‐Methyl‐5‐(pentafluoro‐λ^6‐sulfanyl)‐1,2‐dihydrospiro[indole‐ 3,4′‐oxan]‐2‐one], the melting point was 158 °C.
For `C/C(O)=C(\C#N)C(=O)Nc1ccc(C(F)(F)F)cc1` [Teriflunomide, reference compound], the “Cytostatic effect at concentrations above” value (HEK293T/17 cells; HEK293T/17, MTS, 48 hours) was “above 0.78 μM”, the “Cytostatic effect (in words)” value (HEK293T/17 cells) was “cytostatic” and the “Cytostatic effect (in words)” value (HEK293T/17 cells; listed as teriflunomide) was “strong cytostatic”. The “Effect on SARS‐CoV‐2 infection of target cells (in words)” value (“Effect on SARS‐CoV‐2 infection” for short) (Pseudotyped SARS CoV2; listed as teriflunomide) was “no effect”.
With `Cc1oncc1C(=O)Nc1ccc(S(F)(F)(F)(F)F)cc1` [compound 15, 5‐Methyl‐N‐[4‐(pentafluoro‐λ^6‐sulfanyl)phenyl]‐1,2‐oxazole‐ 4‐carboxamide] the melting point was 167 to 168 °C, the pIC50 (human HDHODH; IC50, HDHODH inhibition) was 6.44 and the “Cytostatic effect (in words)” value (HEK293T/17 cells) was “cytostatic”. For the same compound, the “Effect on SARS‐CoV‐2 infection” value (Pseudotyped SARS CoV2) was “satisfactory inhibition of SARS‐CoV‐2 infection”.
In the case of `C/C(O)=C(\C#N)C(=O)Nc1ccc(S(F)(F)(F)(F)F)cc1` [compound 16, (2Z)‐2‐Cyano‐3‐hydroxy‐N‐[4‐(pentafluoro‐λ^6‐sulfanyl)phenyl] but‐2‐enamide], the melting point was 167 to 170 °C, the pIC50 (human HDHODH; IC50, HDHODH inhibition) was 7.57 and the pIC50 (human HDHODH; IC50, individual determinations behind the mean (n=2), HDHODH inhibition) was 7.54 and 7.60. For the same compound, the “Activity/affinity towards HDHODH compared with Teriflunomide” value (human HDHODH; relative to Teriflunomide, listed as SF5‐Teriflunomide) was “approximately twice as active; also recorded: approximately two‐fold greater affinity”, the “Cytostatic effect at concentrations above” value (HEK293T/17 cells; HEK293T/17, MTS, 48 hours) was > 3.1 µM and the “Cytostatic effect (in words)” value (HEK293T/17 cells) was “cytostatic”. The “Cytostatic effect (in words)” value (HEK293T/17 cells; listed as SF5-teriflunomide) was “strong cytostatic” and the “Effect on SARS‐CoV‐2 infection” value (Pseudotyped SARS CoV2; listed as SF5-teriflunomide) was “no effect”.
With `N#C/C(C(=O)Nc1ccc(F)cc1)=C(/O)c1ccc(Cl)cc1` [compound 17] the pIC50 (SARS‐CoV‐2 M^pro) was 6.64, the “Activity versus HDHODH (in words)” value (human HDHODH) was “inactive; also recorded: no affinity” and the inhibition at 10 µM (human HDHODH; HDHODH, 10 μM, read-out: Percent inhibition at 10 μM) was < 10%. The “Cells healthy up to” value (HEK293T/17 cells; HEK293T/17, MTS, 48 hours) was “up to 50 μM”, the “Cytostatic effect (in words)” value (HEK293T/17 cells) was “less cytostatic” and the “Effect on SARS‐CoV‐2 infection” value (Pseudotyped SARS CoV2) was “enhancing effect”.
